# In PubChem BioAssay AID248 (DTP/NCI, 2004):
# Values joined by “and” are separate entries in the source; they are usually repeats but may differ in a detail not shown here. Identical values can stand only once. Inconclusive results and toxic doses are left out.
# Tested on: L1210 leukemia ip in BDF1 mice, survival T/C
# Experiment: NCI In Vivo Anticancer Drug Screen. Data for tumor model L1210 Leukemia (intraperitoneal) in B6D2F1 (BDF1) mice
# Settings: endpoint: mean survival time, higher = longer survival
# How it was run: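 Tumor cells were implanted, animals were treated, and survival was followed. The result divides the treated measurement by the vehicle-control measurement.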
# [1] = dose: 100.0 mg/kg/injection, schedule: Q01DX009 (ip), vehicle: saline with Tween-80
# [2] = dose: 200.0 mg/kg/injection, schedule: Q01DX009 (ip), vehicle: saline with Tween-80
# [3] = dose: 400.0 mg/kg/injection, schedule: Q01DX009 (ip), vehicle: saline with Tween-80
# [4] = dose: 100.0 mg/kg/injection, schedule: Q04DX003 (ip), vehicle: saline with Tween-80
# [5] = dose: 200.0 mg/kg/injection, schedule: Q04DX003 (ip), vehicle: saline with Tween-80
# [6] = dose: 400.0 mg/kg/injection, schedule: Q04DX002 (ip), vehicle: saline with Tween-80
# [7] = dose: 100.0 mg/kg/injection, schedule: Q01DX009 (ip), vehicle: Klucel (hydroxypropylcellulose) (HPC)
# [8] = dose: 200.0 mg/kg/injection, schedule: Q01DX009 (ip), vehicle: Klucel (hydroxypropylcellulose) (HPC)
# [9] = dose: 400.0 mg/kg/injection, schedule: Q01DX009 (ip), vehicle: Klucel (hydroxypropylcellulose) (HPC)
structure (smiles),measurement,setting,value
CN(C)Cc1cc(C(C)(C)C)cc(C2CCCCC2)c1O,T/C,[1],100 % of control
same,T/C,[2],94 % of control
same,T/C,[3],107 % of control
Nc1ccc(Br)cc1,T/C,[1],100 % of control
same,T/C,[2],95 % of control
same,T/C,[3],99 % of control
COc1cccc(/C=C2\CCNC2=O)c1OC,T/C,"dose: 50.0 mg/kg/injection, schedule: Q01DX001 (ip), vehicle: carboxymethylcellulose (CMC)",96 % of control
same,T/C,"dose: 100.0 mg/kg/injection, schedule: Q01DX001 (ip), vehicle: carboxymethylcellulose (CMC)",102 % of control
same,T/C,"dose: 200.0 mg/kg/injection, schedule: Q01DX001 (ip), vehicle: carboxymethylcellulose (CMC)",100 % of control
same,T/C,"dose: 400.0 mg/kg/injection, schedule: Q01DX001 (ip), vehicle: carboxymethylcellulose (CMC)",96 % of control
Cc1ccc(C(C)C)cc1NC(=O)/C=C/c1ccccc1,T/C,"dose: 6.25 mg/kg/injection, schedule: Q01DX009 (ip), vehicle: saline with Tween-80",97 % of control and 98 % of control
same,T/C,"dose: 12.5 mg/kg/injection, schedule: Q01DX009 (ip), vehicle: saline with Tween-80",97 % of control and 98 % of control
same,T/C,"dose: 25.0 mg/kg/injection, schedule: Q04DX003 (ip), vehicle: saline with Tween-80",88 % of control
same,T/C,"dose: 50.0 mg/kg/injection, schedule: Q01DX001 (ip), vehicle: saline with Tween-80",95 % of control
same,T/C,"dose: 50.0 mg/kg/injection, schedule: Q04DX003 (ip), vehicle: saline with Tween-80",88 % of control
same,T/C,"dose: 100.0 mg/kg/injection, schedule: Q01DX001 (ip), vehicle: saline with Tween-80",94 % of control
same,T/C,"dose: 100.0 mg/kg/injection, schedule: Q04DX002 (ip), vehicle: saline with Tween-80",93 % of control and 96 % of control
same,T/C,[4],88 % of control
same,T/C,"dose: 200.0 mg/kg/injection, schedule: Q01DX001 (ip), vehicle: saline with Tween-80",86 % of control and 87 % of control
same,T/C,"dose: 200.0 mg/kg/injection, schedule: Q04DX002 (ip), vehicle: saline with Tween-80",88 % of control and 90 % of control
same,T/C,[5],89 % of control
same,T/C,"dose: 400.0 mg/kg/injection, schedule: Q01DX001 (ip), vehicle: saline with Tween-80",94 % of control and 108 % of control
same,T/C,[6],96 % of control and 88 % of control
O=C(O)c1c(F)c(F)c(Br)c(F)c1F,T/C,"dose: 25.6 mg/kg/injection, schedule: Q04DX002 (ip), vehicle: saline with Tween-80",168 % of control
same,T/C,"dose: 64.0 mg/kg/injection, schedule: Q04DX002 (ip), vehicle: saline with Tween-80",91 % of control
same,T/C,"dose: 160.0 mg/kg/injection, schedule: Q04DX002 (ip), vehicle: saline with Tween-80",94 % of control
same,T/C,[6],94 % of control
O=C(NCCCCc1ccccc1)c1ccccc1,T/C,[7],102 % of control
same,T/C,"dose: 100.0 mg/kg/injection, schedule: Q04DX003 (ip), vehicle: Klucel (hydroxypropylcellulose) (HPC)",95 % of control
same,T/C,[8],109 % of control
same,T/C,"dose: 200.0 mg/kg/injection, schedule: Q04DX003 (ip), vehicle: Klucel (hydroxypropylcellulose) (HPC)",105 % of control
same,T/C,[9],106 % of control
same,T/C,"dose: 400.0 mg/kg/injection, schedule: Q04DX003 (ip), vehicle: Klucel (hydroxypropylcellulose) (HPC)",95 % of control
CC(CCC(CCC(C)CC(C)(C)C)CCC(C)CC(C)(C)C)CC(C)(C)C (centres undefined),T/C,"dose: 75.0 mg/kg/injection, schedule: Q01DX001 (ip), vehicle: saline with Tween-80",104 % of control
same,T/C,"dose: 300.0 mg/kg/injection, schedule: Q01DX001 (ip), vehicle: saline with Tween-80",97 % of control
Cc1ccc(C)c2c(Cl)c3c(C)ccc(C)c3nc12,T/C,[7],98 % of control
same,T/C,"dose: 100.0 mg/kg/injection, schedule: Q04DX003 (ip), vehicle: other",100 % of control
same,T/C,[8],90 % of control
same,T/C,"dose: 200.0 mg/kg/injection, schedule: Q04DX003 (ip), vehicle: other",97 % of control
same,T/C,[9],96 % of control
same,T/C,"dose: 400.0 mg/kg/injection, schedule: Q04DX003 (ip), vehicle: other",95 % of control
CCCC(=O)c1cc(O)c(O)cc1O,T/C,"dose: 50.0 mg/kg/injection, schedule: Q01DX009 (ip), vehicle: saline with Tween-80",96 % of control
same,T/C,[4],95 % of control
same,T/C,[5],105 % of control
